# Measurements from US6238689A, “Intestinal absorption of nicotine to treat nicotine responsive conditions” (Mayo Foundation for Medical Education and Research, priority 1998, dated 2001).
# Where two headings read alike, the source gives them in different places.
# How the values were obtained:
# [1] = Side effects by questionnaire versus plasma nicotine concentration (Example 4); type: in vivo, human (healthy non-smoking volunteers)
# Method: However, the threshold above which symptoms appeared varied from individual to individual with the nicotine concentration at which side effects first appeared ranging from 2.4 ng/mL to 9.9 ng/mL (although some subjects had nicotine concentrations of >11 ng/mL without symptoms).
# [2] = Pharmacokinetics of nicotine after IV, oral and enema administration (Example 4)
# Method: Intravenous nicotine was prepared using a nicotine base, supplied as the tartrate salt (Fisher Scientific/Eastman Kodak Company, Rochester, N.Y.). Solutions for injection were made up by combining 1.5 mg nicotine base (4.44 mg tartrate salt) in 100 ml of 0.9% sterile normal saline to form a 15 mcg/mL solution. The intravenous solution was filtered through a 0.22 micron filter into a sterile container and under sterile conditions. The solution was then cultured for organisms, assayed for endotoxin, and chemically analyzed prior to infusion to assure stable nicotine concentration. These samples were then be stored in sealed vials until the time of administration.
# The oral preparation was formed by dissolving 45 micrograms nicotine base/kg body weight (133.3 micrograms tartrate salt/kg body weight) in 30 ml purified water.
# The sorbitol was added to make the vehicle isoosmolar and the carboxymethylcellulose was used as a suspending agent.
# Thirty paid human volunteers were admitted to the pharmacokinetic study after giving informed consent to a protocol approved by the institutional review board at the Mayo Clinic, Rochester, Minn. The subjects ranged in age from 21-56 and their body weights ranged from 45 to 153 Kg. All subjects were non-smokers and were healthy based on their histories, and physical examination. Subjects agreed to practice birth control during the study period. Complete blood count, chemistry group, urinalysis and pregnancy test (women only) were obtained. Subjects were excluded if they had cardiovascular disease, peripheral vascular disease, hypertension, were nursing mothers, had laboratory evidence of pregnancy, or had hepatic or renal dysfunction.
# Each subject underwent 2 investigations (IV and non-IV) of 8 hours duration at least 1 week apart. During the IV visit, subjects were given a 15-30 minute infusion of the IV nicotine solution (15 mcg/Kg dose). […] On each study day, venous blood samples were drawn from an IV catheter into standard chemistry vacutainer tubes. Samples were obtained before nicotine administration and at the following time points (time=0 was defined as the point at which the nicotine infusion was started or the non-IV dose was administered): 5, 10, 15, 30, 60, 90 minutes, and 2, 3, 4, 5, 6, and 8 hours. Whole blood samples were centrifuged and plasma samples were then stored at -20 degrees Celsius until analysis. Plasma concentrations of nicotine were determined by gas chromatography/mass spectrometry as described by Baskin et al. (Clin. Chem., 31:76-80 (1991)).
# For this study, the maximum plasma nicotine concentration (Cmax) and the time to reach Cmax (Tmax) were defined as the highest measured plasma concentrations and the time of the sample, respectively. The following pharmacokinetics parameters were calculated using standard equations (Gibaldi (ed.) Pharmcokinetics 2nd ed, Marcel Dekker Inc., New York 409-17 (1982)): area under the plasma nicotine concentration versus time curve (AUC), bioavailability (F), blood elimination half-life (T1/2), volume of distribution (Vdss), and blood nicotine clearance (Clb).
# The computed bioavailability for each subject was used in an analysis of covariance to compare the five groups. Within subject (IV versus non-IV) variation was evaluated for each group of 6 subjects using a paired-T test. In addition, data was reviewed for gender variation.
# [3] = oral, 45 micrograms nicotine base/kg, previous study (Benowitz et al.); cited from earlier work
# [4] = system: cutaneous inflammatory response; conditions: transdermal delivery system; cited from earlier work
# [5] = Side effects after nicotine/Carbopol enema in healthy volunteers and patients with active UC (Example 6); type: in vivo, human
# Method: Eight normal healthy volunteers and 8 patients with active UC were enrolled in this open label, single dose study.
# The nicotine content of sample enemas was first confirmed by diluting a small volume of the contents in dilute hydrochloric acid to produce an approximate concentration of 30 ng/ml, which could then be accurately measured by our assay.
# Side-effect experienced by the subjects were recorded as absent, mild, moderate or severe. Subjects were asked to report the time, nature and severity of any symptoms, at the commencement and each hour through the study, and were questioned particularly about nausea, vomiting, light-headedness, tremor, palpitations and headache. Blood pressure and pulse rate were also recorded each hour and when any symptoms occurred.
# [6] = Pharmacokinetics of nicotine tartrate after IV and Eudragit coated delayed release oral (DRO) capsules (Example 5)
# Method: Delayed-release Eudragit™ coated oral nicotine capsules were prepared by Tillotts Pharma AG, Ziefen, Switzerland and consisted of either 3 mg or 6 mg of nicotine (8.887 mg or 17.774 mg nicotine tartrate base salt, respectively). The nicotine salt was suspended in an excipient (a saturated polyglycolized glyceride; Gelucire™ 44/14, (supplied by Gattefosse France) (190 mg or 380 mg respectively) and filled into hard gelatine capsules (size 1). The capsules were then coated with Eudragit™ L30D. Eudragit™ L30D is a polymer which dissolves at about pH 6.8 in the ileum. The size of the capsule and the thickness of the Eudragit coating are similar to those used to deliver Asacol™ (Eudragit coated mesalamine) to the terminal ileum (Schroeder et al., NEJM, 317:1625-9 (1987)).
# Delayed-release Eudragit coated oral nicotine/carbomer capsules were prepared by Tillotts Pharma. Nicotine/carbomer powder (1:50--nicotine carbomer) was coated with Eudragit™ L, S or LS. The coated powder was then formed into spherules, coated with Eudragit S and filled into hard gelatine capsules (size 1). The capsules were then coated with Eudragit™ L30D. In one example, the capsules contained 150 mg nicotine-carbomer complex, equivalent to 3 mg nicotine base.
# The aim of this study was to determine nicotine tartrate pharmacokinetics after administration by: IV, and 3 mg and 6 mg Eudragit S coated delay release oral (DRO) capsules.
# Each subject had 2 studies [DRO and 15 μg/kg (mean 1 mg) IV] separated by >1 week with the order (IV vs DRO first) randomly assigned. After nicotine administration, blood was obtained for 12 hours and serum nicotine was determined by gas chromatography/mass spectrometry. Plasma cotinine concentrations were determined HPLC in 2 subjects (both 6 mg) over 72 hours. Pharmacokinetic parameters determined were: maximum concentration (Cmax); time to Cmax (Tmax); area under the curve (AUC); bioavailability (F); volume of distribution (Vdss); clearance (CL); and half-life (T1/2).
# Delayed-release Eudragit coated oral nicotine capsules were prepared in accordance with Example 3, Part A.
# Delayed-release Eudragit coated oral nicotine/Carbopol capsules were prepared in accordance with Example 3, Part B.
# [7] = human, in vivo; cited from earlier work
# [8] = cited from earlier work
# [9] = Side effects of nicotine delivered to the intestine versus gum and patch; type: in vivo, human; conditions: absorbed through the intestinal mucosa; inventors' belief
# [10] = statement without test; cited from earlier work
smiles,measurement,setting,value
CN1CCCC1c1cccnc1 (stereo not shown) [nicotine],nicotine concentration without symptoms (some subjects),[1]; plasma,> 11 ng/mL
same,"side effects, correlation with plasma nicotine concentrations",[1]; questionnaire every 30 minutes,closely correlated with plasma nicotine concentrations
same,side effects observed,[1]; variable frequency,"nausea lightheadedness, and diaphoresis"
same,Tmax,"[2]; human, plasma, iv, […]",18 ± 6 min
same,AUC,"[2]; human, plasma, iv, […], IV 15 mcg/kg over 15-30 min, n = 32, mean ± SD",12 ± 5 ng·h/mL
same,Tmax,"[2]; human, plasma, po, […]",66 ± 6 min
same,bioavailability,"[2]; human, plasma, po, […]",19%
same,AUC,"[2]; human, plasma, po, […], 45 mcg nicotine base/kg, n=6, analyzed on natural log scale",9 ± 5 ng·h/mL
same,subjects with no detectable plasma levels,"[2]; oral, 45 mcg/kg",2 subjects
same,time at which nicotine was first detected in plasma,"[2]; oral, 45 mcg/kg, when detectable",30 min
same,"colonic absorption, dependence on patient position","[2]; pilot study, two additional subjects, enema",higher plasma levels detected when subjects were allowed into a sitting position immediately after administration
same,tolerability,[3],well-tolerated
same,"cutaneous inflammatory response to sodium lauryl sulphate and UVB radiation, and reactive hyperaemia",[4],"suppress the cutaneous inflammatory response to sodium lauryl sulphate (irritant) and UVB radiation, as well as reactive hyperaemia following arterial occlusion"
same,rise in serum nicotine,[5]; administration to the colon,only modest rises in serum nicotine occur
same,tolerability,"[5]; human, in vivo",side effects were few and the preparation well tolerated
same,nicotine's stability,"[5]; phosphate buffer added, final pH of 5.5",increasing nicotine's stability
same,first pass metabolism,[6]; 6 mg DRO versus IV,significant first pass metabolism
same,systemic bioavailability,[6]; DRO route to the ileocolon,reduced systemic bioavailability of nicotine
same,F,"[6]; IV 15 μg/kg (mean 1 mg), n=20",100 ± 0%
same,Tmax,"[6]; human, in vivo, iv, […]",24 ± 6 min
same,Vd,"[6]; human, in vivo, iv, […]",2 ± 1 L/kg
same,clearance,"[6]; human, in vivo, iv, […]",16.7 mL/min/kg
same,half-life,"[6]; human, in vivo, iv, […]",60 ± 60 min
same,response of Alzheimer's and Parkinson's disease patients,[7],beneficial response
same,effect on cardiovascular system,[8]; in vivo,increased heart rate and blood pressure resulting in greater myocardial work and oxygen requirement and coronary vasocontriction
same,effect on platelets and blood lipids,[8]; purported,activate platelets and to adversely affect blood lipids
same,"bioavailability, cause",[9],low bioavailability of nicotine absorbed through the intestinal mucosa appears to be largely due to its conversion to the major metabolite cotinine on first pass metabolism in the liver
CN1C(=O)CC[C@H]1c1cccnc1 [cotinine],activity relative to nicotine,[10],less active metabolite than nicotine
